42 targets from the supplement of paper PMC12463676, “Small-molecule dissolution of stress granules by redox modulation benefits ALS models” (Nature Chemical Biology, 2025) can be followed below.

Compound in assay [1]: NC(=O)CCCCC1CCSS1 [lipoamide]
Nature of the assay: thermal stability z-score vs DMSO; higher = more thermally stabilized by treatment. Conditions: HeLa, lipoamide concentration 100 µM. As to the method: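 Cellular thermal proteome profiling in HeLa cells. Cells were treated with 100 µM lipoamide for 1 h, with or without 1 mM arsenate for a further 1 h, then heated to ten temperatures (37-66.3 °C), and soluble protein was quantified by TMT mass spectrometry relative to 0.1% DMSO controls. The thermal stability score (sum of log2 fold changes minus the abundance score) was transformed to a z-score; mean of n = 3 experiments.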

Compound in assay [2]: O=[As]([O-])(O)O.[K+] [potassium arsenate]
The assay is described as above. Conditions: HeLa; arsenate concentration 1 mM. As to the method: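 Cellular thermal proteome profiling in HeLa cells treated with 1 mM arsenate for 1 h (DMSO pretreatment), heated to ten temperatures (37-66.3 °C). Soluble protein was quantified by TMT mass spectrometry relative to DMSO controls; the thermal stability score was transformed to a z-score; mean of n = 3 experiments.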

[3] abbreviates: arsenate co-treatment: 1 mM arsenate 1 h.
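Further: each temperature applied for 3 min, abundance score taken as mean log2 fold change at the two lowest temperatures, z-score obtained by mean subtraction and division by SD.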

Sequence of UniProt Q9Y385 (Q9Y385 whole entry): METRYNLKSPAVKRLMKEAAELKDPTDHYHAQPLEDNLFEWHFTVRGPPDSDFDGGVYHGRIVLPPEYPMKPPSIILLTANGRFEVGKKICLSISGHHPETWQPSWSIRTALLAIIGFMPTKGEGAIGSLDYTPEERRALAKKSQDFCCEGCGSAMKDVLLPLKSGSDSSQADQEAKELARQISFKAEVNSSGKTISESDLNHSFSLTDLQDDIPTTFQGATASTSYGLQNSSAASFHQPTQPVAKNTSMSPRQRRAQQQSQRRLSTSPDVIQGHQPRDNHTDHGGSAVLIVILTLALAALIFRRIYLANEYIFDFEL
Sequence of UniProt Q9Y3Z3 (Q9Y3Z3 whole entry): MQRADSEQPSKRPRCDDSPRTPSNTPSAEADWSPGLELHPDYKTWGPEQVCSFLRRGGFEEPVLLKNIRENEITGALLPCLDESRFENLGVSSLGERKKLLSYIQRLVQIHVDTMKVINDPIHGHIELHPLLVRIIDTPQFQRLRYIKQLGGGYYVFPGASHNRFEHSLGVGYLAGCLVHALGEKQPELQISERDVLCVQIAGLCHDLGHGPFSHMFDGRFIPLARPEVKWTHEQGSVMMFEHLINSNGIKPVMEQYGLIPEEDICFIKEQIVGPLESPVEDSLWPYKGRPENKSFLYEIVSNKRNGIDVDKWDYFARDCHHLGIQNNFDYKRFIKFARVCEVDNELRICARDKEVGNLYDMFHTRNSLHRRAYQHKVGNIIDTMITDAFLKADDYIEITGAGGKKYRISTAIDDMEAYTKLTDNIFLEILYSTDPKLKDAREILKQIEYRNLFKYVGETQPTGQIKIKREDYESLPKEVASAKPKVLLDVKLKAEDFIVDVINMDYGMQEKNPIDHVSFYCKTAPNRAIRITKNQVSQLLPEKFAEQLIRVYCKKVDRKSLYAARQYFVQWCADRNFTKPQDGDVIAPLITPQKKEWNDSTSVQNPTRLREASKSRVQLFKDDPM
Sequence of UniProt Q9UBK8 (Q9UBK8 whole entry): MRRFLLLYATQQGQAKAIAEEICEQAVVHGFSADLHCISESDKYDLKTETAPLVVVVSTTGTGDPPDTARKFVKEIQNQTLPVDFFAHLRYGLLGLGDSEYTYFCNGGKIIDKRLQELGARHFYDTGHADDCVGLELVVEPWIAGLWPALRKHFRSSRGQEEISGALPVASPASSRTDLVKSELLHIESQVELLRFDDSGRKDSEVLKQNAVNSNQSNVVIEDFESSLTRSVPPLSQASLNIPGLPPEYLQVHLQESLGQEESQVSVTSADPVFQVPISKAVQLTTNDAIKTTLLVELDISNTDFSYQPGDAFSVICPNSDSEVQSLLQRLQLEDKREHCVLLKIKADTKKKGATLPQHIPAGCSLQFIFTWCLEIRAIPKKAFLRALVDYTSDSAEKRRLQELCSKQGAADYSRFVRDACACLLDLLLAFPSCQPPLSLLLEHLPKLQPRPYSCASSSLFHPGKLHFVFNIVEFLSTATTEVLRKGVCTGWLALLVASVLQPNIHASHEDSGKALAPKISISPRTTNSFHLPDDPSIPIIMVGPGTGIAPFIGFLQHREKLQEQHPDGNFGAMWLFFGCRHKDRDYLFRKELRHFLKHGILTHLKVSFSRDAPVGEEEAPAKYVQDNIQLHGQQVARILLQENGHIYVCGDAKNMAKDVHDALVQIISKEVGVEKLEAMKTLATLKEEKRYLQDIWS
Sequence of UniProt Q9H2D6 (Q9H2D6 whole entry): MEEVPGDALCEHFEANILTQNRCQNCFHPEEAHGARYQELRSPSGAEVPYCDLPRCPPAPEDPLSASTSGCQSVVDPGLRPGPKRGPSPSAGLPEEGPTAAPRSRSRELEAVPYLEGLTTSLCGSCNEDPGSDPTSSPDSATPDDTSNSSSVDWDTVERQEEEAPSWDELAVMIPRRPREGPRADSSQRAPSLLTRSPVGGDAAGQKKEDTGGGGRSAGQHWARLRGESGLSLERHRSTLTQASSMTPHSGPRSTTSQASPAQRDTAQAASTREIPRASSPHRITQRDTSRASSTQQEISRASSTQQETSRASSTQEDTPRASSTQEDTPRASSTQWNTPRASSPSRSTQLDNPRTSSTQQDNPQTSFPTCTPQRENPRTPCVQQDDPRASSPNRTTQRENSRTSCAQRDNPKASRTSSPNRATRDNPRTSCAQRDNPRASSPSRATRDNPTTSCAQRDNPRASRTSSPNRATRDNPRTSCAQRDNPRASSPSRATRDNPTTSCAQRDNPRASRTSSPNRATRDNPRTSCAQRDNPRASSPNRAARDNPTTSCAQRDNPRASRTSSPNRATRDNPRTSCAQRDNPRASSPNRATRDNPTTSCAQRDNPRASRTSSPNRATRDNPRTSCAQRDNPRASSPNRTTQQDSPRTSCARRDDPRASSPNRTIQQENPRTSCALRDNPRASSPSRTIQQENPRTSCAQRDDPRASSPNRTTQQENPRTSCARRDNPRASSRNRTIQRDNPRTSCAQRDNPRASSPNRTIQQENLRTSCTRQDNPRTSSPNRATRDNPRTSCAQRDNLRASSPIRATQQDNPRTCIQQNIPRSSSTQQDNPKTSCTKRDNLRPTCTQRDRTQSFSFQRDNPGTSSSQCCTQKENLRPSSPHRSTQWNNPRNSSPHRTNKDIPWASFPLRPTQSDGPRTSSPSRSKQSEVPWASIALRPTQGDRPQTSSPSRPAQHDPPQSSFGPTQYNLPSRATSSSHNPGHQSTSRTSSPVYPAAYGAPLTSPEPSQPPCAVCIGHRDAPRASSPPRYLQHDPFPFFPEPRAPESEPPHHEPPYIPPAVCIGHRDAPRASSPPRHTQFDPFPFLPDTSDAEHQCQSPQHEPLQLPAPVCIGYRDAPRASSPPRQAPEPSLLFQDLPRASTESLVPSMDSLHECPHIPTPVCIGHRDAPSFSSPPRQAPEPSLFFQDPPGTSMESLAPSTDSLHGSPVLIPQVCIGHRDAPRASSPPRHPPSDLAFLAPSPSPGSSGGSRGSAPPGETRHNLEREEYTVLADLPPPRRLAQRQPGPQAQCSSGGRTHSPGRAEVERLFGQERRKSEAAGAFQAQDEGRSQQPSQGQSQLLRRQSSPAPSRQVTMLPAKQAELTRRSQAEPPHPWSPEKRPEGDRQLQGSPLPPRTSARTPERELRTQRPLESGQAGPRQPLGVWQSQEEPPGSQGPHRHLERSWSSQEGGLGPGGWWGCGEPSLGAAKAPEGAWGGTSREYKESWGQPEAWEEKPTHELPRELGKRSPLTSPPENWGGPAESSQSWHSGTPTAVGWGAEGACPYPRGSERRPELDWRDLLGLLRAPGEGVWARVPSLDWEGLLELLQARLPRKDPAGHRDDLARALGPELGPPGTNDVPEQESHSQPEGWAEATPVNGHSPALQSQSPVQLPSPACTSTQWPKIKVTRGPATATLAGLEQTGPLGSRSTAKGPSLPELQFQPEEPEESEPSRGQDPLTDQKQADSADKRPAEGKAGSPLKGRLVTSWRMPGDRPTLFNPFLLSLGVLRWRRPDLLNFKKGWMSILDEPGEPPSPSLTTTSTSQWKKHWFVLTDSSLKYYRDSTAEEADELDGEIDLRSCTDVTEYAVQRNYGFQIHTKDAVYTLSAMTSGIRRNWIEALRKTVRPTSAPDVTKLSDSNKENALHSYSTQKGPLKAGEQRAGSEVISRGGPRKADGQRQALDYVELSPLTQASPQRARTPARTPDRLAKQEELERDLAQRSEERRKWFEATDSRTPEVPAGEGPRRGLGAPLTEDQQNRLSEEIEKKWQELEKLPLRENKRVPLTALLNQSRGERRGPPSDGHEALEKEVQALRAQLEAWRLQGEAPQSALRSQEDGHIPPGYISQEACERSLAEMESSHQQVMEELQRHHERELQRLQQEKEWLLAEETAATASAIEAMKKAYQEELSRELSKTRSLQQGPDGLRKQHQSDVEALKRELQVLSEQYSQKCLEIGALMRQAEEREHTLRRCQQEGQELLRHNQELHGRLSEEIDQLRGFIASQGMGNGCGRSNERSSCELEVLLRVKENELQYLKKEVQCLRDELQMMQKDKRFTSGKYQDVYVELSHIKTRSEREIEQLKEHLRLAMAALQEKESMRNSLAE
Sequence of UniProt Q9HAB3 (Q9HAB3 whole entry): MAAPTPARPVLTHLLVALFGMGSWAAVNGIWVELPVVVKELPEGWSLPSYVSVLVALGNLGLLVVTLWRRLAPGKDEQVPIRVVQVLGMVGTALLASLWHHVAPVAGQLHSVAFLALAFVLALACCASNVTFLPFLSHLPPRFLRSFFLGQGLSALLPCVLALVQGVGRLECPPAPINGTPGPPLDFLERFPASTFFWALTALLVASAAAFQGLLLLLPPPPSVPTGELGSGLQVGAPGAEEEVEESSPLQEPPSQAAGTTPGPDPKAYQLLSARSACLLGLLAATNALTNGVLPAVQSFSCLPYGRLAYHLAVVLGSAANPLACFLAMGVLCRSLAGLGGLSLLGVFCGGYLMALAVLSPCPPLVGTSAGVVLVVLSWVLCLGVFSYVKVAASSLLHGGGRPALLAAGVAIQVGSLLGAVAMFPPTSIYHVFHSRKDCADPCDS
Sequence of UniProt Q9BV79 (Q9BV79 whole entry): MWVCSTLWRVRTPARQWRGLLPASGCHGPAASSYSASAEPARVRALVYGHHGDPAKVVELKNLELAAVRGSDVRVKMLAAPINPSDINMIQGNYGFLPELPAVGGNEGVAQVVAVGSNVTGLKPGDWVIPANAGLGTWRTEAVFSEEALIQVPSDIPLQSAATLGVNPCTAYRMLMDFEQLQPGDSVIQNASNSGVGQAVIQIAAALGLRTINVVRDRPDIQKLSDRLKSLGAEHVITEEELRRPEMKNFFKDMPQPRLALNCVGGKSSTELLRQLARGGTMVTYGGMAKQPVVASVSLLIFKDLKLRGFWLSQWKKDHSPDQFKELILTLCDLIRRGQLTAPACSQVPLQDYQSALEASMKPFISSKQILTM
Sequence of UniProt P10606 (P10606 whole entry): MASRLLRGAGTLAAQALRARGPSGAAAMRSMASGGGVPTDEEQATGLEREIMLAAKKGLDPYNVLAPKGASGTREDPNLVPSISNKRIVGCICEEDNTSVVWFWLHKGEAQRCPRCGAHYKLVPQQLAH

Consider SLC44A1 (UniProt Q8WWI5), for which the thermal stability z-score in assay [1] (setting [3]) is 0.347; in assay [1] (arsenate co-treatment: none), -0.0965; in assay [2] it was -0.452.

With UMPS (UniProt P11172), the thermal stability z-score in assay [1] (setting [3]) is 0.111; in assay [1] (arsenate co-treatment: none), 0.297; in assay [2], -1.02.

In the case of HSP90AB4P (UniProt Q58FF6), the values for the thermal stability z-score in assay [1] (setting [3]), in assay [1] (arsenate co-treatment: none) and in assay [2] were 0.361, -0.21 and -0.635, respectively.

RNF2 (UniProt Q99496): the values for the thermal stability z-score in assay [1] (setting [3]), in assay [1] (arsenate co-treatment: none) and in assay [2] were -0.111, -0.172 and -0.107, respectively.

As for TRIOBP (UniProt Q9H2D6), the thermal stability z-score in assay [1] (setting [3]) was -0.339; in assay [1] (arsenate co-treatment: none), -0.147; in assay [2], 0.379.

As for MGEA5 (UniProt O60502), the thermal stability z-score is -0.365 in assay [1] (setting [3]), -0.157 in assay [1] (arsenate co-treatment: none) and -0.187 in assay [2].

In the case of LAMP1 (UniProt P11279), the thermal stability z-score is 0.396 in assay [1] (setting [3]), 0.531 in assay [1] (arsenate co-treatment: none) and -0.0209 in assay [2].

Take PSMD7 (UniProt P51665): the results for the thermal stability z-score in assay [1] (setting [3]), in assay [1] (arsenate co-treatment: none) and in assay [2] were -0.802, -0.0777 and -0.475, respectively.

As to QTRTD1 (UniProt Q9H974), the thermal stability z-score in assay [1] (setting [3]) is 0.678; in assay [1] (arsenate co-treatment: none), -0.447; in assay [2] it was -0.765.

With DHCR24 (UniProt Q15392), the results for the thermal stability z-score in assay [1] (setting [3]), in assay [1] (arsenate co-treatment: none) and in assay [2] were 0.408, 0.354 and 0.726, respectively.

On to SURF1 (UniProt Q15526), for which the figures for the thermal stability z-score in assay [1] (setting [3]), in assay [1] (arsenate co-treatment: none) and in assay [2] were -1.27, -0.521 and 0.165, respectively.

As to PSPC1 (UniProt Q8WXF1), the thermal stability z-score in assay [1] (setting [3]) was -0.0313; in assay [1] (arsenate co-treatment: none) it was 0.551; in assay [2], 0.449.

As for TJP2 (UniProt Q9UDY2), the thermal stability z-score in assay [1] (setting [3]) was -0.259; in assay [1] (arsenate co-treatment: none), -0.231; in assay [2] it was 0.438.

Take UBE2J1 (UniProt Q9Y385): the thermal stability z-score in assay [1] (setting [3]) is -0.909; in assay [1] (arsenate co-treatment: none), -0.103; in assay [2], 0.198.

As for TRIM26 (UniProt Q12899), the figures for the thermal stability z-score in assay [1] (setting [3]), in assay [1] (arsenate co-treatment: none) and in assay [2] were -0.368, -0.0684 and 0.295, respectively.

Regarding MTRR (UniProt Q9UBK8), the thermal stability z-score is 0.00117 in assay [1] (setting [3]), -0.531 in assay [1] (arsenate co-treatment: none) and 0.111 in assay [2].

In the case of OGFOD3 (UniProt Q6PK18), the thermal stability z-score in assay [1] (setting [3]) was 0.0324; in assay [1] (arsenate co-treatment: none), -0.274; in assay [2], -0.0712.

For WDR45B (UniProt Q5MNZ6), the results for the thermal stability z-score in assay [1] (setting [3]), in assay [1] (arsenate co-treatment: none) and in assay [2] were 0.848, 0.63 and 0.162, respectively.

On to MCC (UniProt P23508), for which the thermal stability z-score is -0.1 in assay [1] (setting [3]), -0.0517 in assay [1] (arsenate co-treatment: none) and -0.0394 in assay [2].

For UNK (UniProt Q9C0B0), the results for the thermal stability z-score in assay [1] (setting [3]), in assay [1] (arsenate co-treatment: none) and in assay [2] were 0.117, 0.0195 and -0.364, respectively.

For ADPGK (UniProt Q9BRR6), the thermal stability z-score was -1.02 in assay [1] (setting [3]), -0.44 in assay [1] (arsenate co-treatment: none) and -0.315 in assay [2].

Take LRCH3 (UniProt Q96II8): the thermal stability z-score in assay [1] (setting [3]) is -0.0719; in assay [1] (arsenate co-treatment: none), -0.00251; in assay [2], -0.153.

Take COX5B (UniProt P10606): the thermal stability z-score in assay [1] (setting [3]) is 1.26; in assay [1] (arsenate co-treatment: none), 1.21; in assay [2], -0.926.

With ATL3 (UniProt Q6DD88), the thermal stability z-score in assay [1] (setting [3]) is -0.399; in assay [1] (arsenate co-treatment: none), -0.0961; in assay [2] it was 0.731.

For WFS1 (UniProt O76024), the thermal stability z-score was -0.47 in assay [1] (setting [3]), -0.487 in assay [1] (arsenate co-treatment: none) and -0.022 in assay [2].

Consider GRB10 (UniProt Q13322), for which the thermal stability z-score in assay [1] (setting [3]) was -0.159; in assay [1] (arsenate co-treatment: none), -0.12; in assay [2] it was -0.636.

Turning to MARS2 (UniProt Q96GW9), the results for the thermal stability z-score in assay [1] (setting [3]), in assay [1] (arsenate co-treatment: none) and in assay [2] were 0.482, 0.957 and 0.992, respectively.

With LRRC45 (UniProt Q96CN5), the thermal stability z-score in assay [1] (setting [3]) was -0.00638; in assay [1] (arsenate co-treatment: none), 0.0708; in assay [2], 0.0892.

Turning to SPTAN1 (UniProt Q13813), the thermal stability z-score is 0.768 in assay [1] (setting [3]), 0.506 in assay [1] (arsenate co-treatment: none) and -1.44 in assay [2].

Take PRKAA1 (UniProt Q13131): the thermal stability z-score in assay [1] (setting [3]) is -0.417; in assay [1] (arsenate co-treatment: none), -0.0988; in assay [2], 0.048.

As for ADCK1 (UniProt Q86TW2), the thermal stability z-score in assay [1] (setting [3]) is 0.36; in assay [1] (arsenate co-treatment: none) it was -0.122; in assay [2], -0.00585.

B4GALT4 (UniProt O60513): the thermal stability z-score in assay [1] (setting [3]) is -0.0137; in assay [1] (arsenate co-treatment: none) it was -0.101; in assay [2], 0.252.

For SLC38A2 (UniProt Q96QD8), the thermal stability z-score was found to be 0.351 in assay [1] (setting [3]), 0.272 in assay [1] (arsenate co-treatment: none) and 0.774 in assay [2].

Turning to SLC52A2 (UniProt Q9HAB3), the thermal stability z-score is 0.194 in assay [1] (setting [3]), 0.164 in assay [1] (arsenate co-treatment: none) and -0.17 in assay [2].

Turning to PARD6B (UniProt Q9BYG5), the thermal stability z-score was 0.233 in assay [1] (setting [3]), -0.00454 in assay [1] (arsenate co-treatment: none) and -0.0258 in assay [2].

On to CMC1 (UniProt Q7Z7K0), for which the values for the thermal stability z-score in assay [1] (setting [3]), in assay [1] (arsenate co-treatment: none) and in assay [2] were 0.741, -0.328 and 0.65, respectively.

DPH6 (UniProt Q7L8W6): the thermal stability z-score in assay [1] (setting [3]) is -0.187; in assay [1] (arsenate co-treatment: none) it was -0.152; in assay [2] it was -0.722.

As to MKI67 (UniProt P46013), the thermal stability z-score was determined as 1.7 in assay [1] (setting [3]), 1.37 in assay [1] (arsenate co-treatment: none) and 0.155 in assay [2].

For the target AJUBA (UniProt Q96IF1), the thermal stability z-score in assay [1] (setting [3]) is -0.32; in assay [1] (arsenate co-treatment: none), -0.207; in assay [2] it was -0.562.

In the case of NLRX1 (UniProt Q86UT6), the thermal stability z-score in assay [1] (setting [3]) was 0.128; in assay [1] (arsenate co-treatment: none), 0.211; in assay [2], -0.0617.

As to SAMHD1 (UniProt Q9Y3Z3), the thermal stability z-score in assay [1] (setting [3]) was -0.0165; in assay [1] (arsenate co-treatment: none), 0.3; in assay [2], 0.738.

Take MECR (UniProt Q9BV79): the thermal stability z-score in assay [1] (setting [3]) was 0.217; in assay [1] (arsenate co-treatment: none), -0.251; in assay [2] it was 0.152.
